{
  "source": "patent US20050222211A1",
  "about": "“S(-)rabeprazole compositions and methods” (Sepracor Inc., priority 1998, published 2005)",
  "origin": "cited, not measured here",
  "key": {"[1]": {"test_system": "gastric acid secretion", "settings": "humans"}, "[2]": {"test_system": "CYP 1A1 mRNA", "settings": "compared with pantoprazole"}, "[3]": {"test_system": "CYP 3A", "settings": "compared with omeprazole"}, "[4]": {"settings": "humans; depending on dose"}, "[5]": {"biological_target": "CYP 2C19 (Homo sapiens, UniProt P33261)", "sequence (P33261 whole entry, species assumed)": "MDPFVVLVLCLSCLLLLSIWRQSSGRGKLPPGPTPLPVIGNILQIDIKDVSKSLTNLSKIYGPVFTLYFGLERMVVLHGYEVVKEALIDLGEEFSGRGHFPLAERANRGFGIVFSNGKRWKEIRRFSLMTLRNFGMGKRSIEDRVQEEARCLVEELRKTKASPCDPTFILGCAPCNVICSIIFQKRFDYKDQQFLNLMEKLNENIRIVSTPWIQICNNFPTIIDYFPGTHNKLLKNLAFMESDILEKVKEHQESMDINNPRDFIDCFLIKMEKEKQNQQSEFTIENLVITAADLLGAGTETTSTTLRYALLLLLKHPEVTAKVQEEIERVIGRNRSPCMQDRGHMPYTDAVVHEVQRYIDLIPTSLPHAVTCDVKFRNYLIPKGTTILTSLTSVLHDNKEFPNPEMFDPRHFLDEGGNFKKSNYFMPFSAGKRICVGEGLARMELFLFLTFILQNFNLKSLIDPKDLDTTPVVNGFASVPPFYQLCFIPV", "settings": "compared with omeprazole"}},
  "data": [
    {"smiles": "COCCCOc1ccnc(C[S+]([O-])c2nc3ccccc3[nH]2)c1C", "note": "(racemic) [racemic rabeprazole]", "values": [
      {"measurement": "duration of the acid inhibitory effect", "setting": "[1]", "value": "about 24 hours"},
      {"measurement": "induction of CYP 1A1 mRNA", "setting": "[2]", "value": "more potent inducer of CYP 1A1 mRNA than is pantoprazole"},
      {"measurement": "effects on hepatic drug metabolizing enzyme systems such as CYP 3A", "setting": "[3]", "value": "comparable to omeprazole"},
      {"measurement": "serum half-life", "setting": "[4]", "value": "0.833 to 1.5", "unit": "h"},
      {"measurement": "inhibition of CYP 2C19", "setting": "[5]", "value": "less inhibitory of CYP 2C19 than is omeprazole"}
    ]}
  ]
}
